In patent publication US20250161245A1, “A MIXTURE OF UREA, BIURET AND N-CONTAINING BY-PRODUCTS CREATED DURING BIURET PRODUCTION AS A DIETARY NON-PROTEIN NITROGEN-SOURCE FOR RUMINANTS AND USES THEREOF” (Yara International ASA, priority 2022, published 2025):

Tests used:
ruminal fluid [1] = experiment: in vitro batch culture incubations: VFA, ammonia-N, pH (Example 4); type: cell-based, Angus crossbred steers; details: corn silage-based diet
Description: In this example, an in vitro assay was performed using batch culture incubations, aiming to simulate rumen fermentation.
Two ruminally cannulated Angus crossbred steers (808.8±36.3 kg body weight) were used as ruminal fluid donors for the in vitro batch culture incubations. The steers were fed a corn silage and gin trash diet (70% and 30% on a dry matter basis, respectively) ad libitum at least 35 days before collecting ruminal fluid to perform the in vitro incubations. Each steer received a NPN-mixture equivalent to 100 g of urea per day comprised of an equal amount of N from the different NPN sources to adapt the rumen microbial community. Thus, each steer was fed daily 33 g of urea (46 wt. % N) or 37 g of a urea-biuret mixture according to the present disclosure (UB) comprising 41 wt. % N. These amounts were mixed in with the feed diet every two days.
The in vitro batch culture incubations were conducted as a randomized complete block design using 70 wt. % corn silage and 30 wt. % gin trash on a dry matter basis conserving the diet characteristics used during the animal adaptation period. The treatments were designed to be isonitrogenous (=having the same amount of dietary nitrogen) and equivalent to 1 wt. % of urea inclusion. The NPN treatments were consequently as follows: • Control without NPN-supplementation (“control”); • 100 wt % urea (Rumisan®) (“urea”); • 100 wt % of a urea/biuret mixture according to the present application (“UB”).
The in vitro incubations were conducted on three separate days (replicates). A representative sample of digesta was collected from different places in the rumen of ruminally cannulated steers and strained through 4 layers of cheesecloth, placed in pre-warmed thermos containers, and transported to the laboratory within 30 minutes after the collection. In the laboratory, the ruminal fluid from the two steers was maintained under constant CO2-flux and was combined in equal proportions. This combined ruminal fluid was mixed with McDougall's buffer (McDougall, 1948) with and without 0.077 g/liter of 10 wt. % ammonium sulfate enriched with ^15N in relation 1:4, and it was used as an inoculum. Two bottles of 500 ml fitted with a side arm and a rubber septum were incubated per treatment. The bottles contained 5.6 g of substrate dry matter and 400 ml of ^15N enriched inoculum, and were incubated for 24 hours at 39° C. with an agitation of 60 rpm to monitor gas production kinetics using an Ankom Gas Monitoring System from Ankom Technologies, Fairport, New York. Also, one 500-ml bottle without 15N enriched inoculum was incubated to determine the basal ^15N enrichment. At 12 hours of incubation, two samples of 10 ml of rumen fluid were collected from each bottle through the septa port using a 20-ml syringe. These samples were acidified by adding 10 μl of a 20 vol/vol % of H2SO4-solution to each 10-ml sample, and frozen at minus 20° C. until further analysis. At the end of the 24 hours incubation, the final pH was recorded, the bottles were placed on ice to prevent further microbial fermentation and two 10-ml samples were collected and acidified by adding 20 μl of a 20 vol/vol % of H2SO4-solution and were frozen at minus 20° C. until further analysis. The remaining fermentation content was thereafter agitated at 60 rpm for 30 seconds and divided into two subsamples. […]

ruminal fluid [2] = experiment: in vitro methane production, batch culture (Example 4); type: cell-based, Angus crossbred steers; details: corn silage-based diet, 24 hours incubation
Description: The amount of methane produced was determined by measuring total gas production and the contribution of methane to it. The production of gas was recorded using an Ankom Gas Monitoring System from Ankom Technologies. This system was adapted to 500 ml bottles during the entire fermentation process. The kinetics of the production was fitted to a Gompertz model to determine the rate of the total maximal gas production (M), fractional rate of gas produced (kf) and lag phase (L). A gas subsample was analyzed to measure methane concentration and calculate the total methane production during the fermentation. The concentration of methane was determined using a gas chromatograph Agilent 7820 GC from Agilent Technologies with flame ionization and a capillary column (Plot Fused Silica 25 m×0.32 mm, coating Molsieve 5A, Varian CP 7536 from Varian Inc.).

[3] = 12 hours of incubation, equivalent to 1 wt. % urea

SMILES: NC(N)=O [Urea, urea]
- Ammonia-N (ruminal fluid [1]; [3]): 2.74 mM
- Total VFA (ruminal fluid [1]; [3]): 31.77 mM
- Ammonia-N (ruminal fluid [1]; 24 hours of incubation): 6.55 mM
- Total VFA (ruminal fluid [1]; 24 hours of incubation): 40.96 mM
- pH (ruminal fluid [1]; 24 hours of incubation): 6.38
- methane production per g organic matter digested (ruminal fluid [2]): 6.86 mM/g OMd
- methane production per g organic matter incubated (ruminal fluid [2]): 1.23 mM/g OMi
